Measurements taken from patent US7858658B2, “Fluoro- and trifluoroalkyl-containing heterocyclic sulfonamide inhibitors of beta amyloid production and derivatives thereof” (Wyeth LLC, priority 2003, dated 2010).
“And” between values parts separate entries of the source, which are not always exact repeats. Identical values can stand only once.

How the values were obtained:
[1] = tested on: amyloid precursor protein (APP) proteolysis; assay: Repressor Release Assay (RRA); assay type: cell-based; details: all compounds tested at 20 μg/mL; for fold induction at 20 µg/mL: read-out: RRA data: fold increase of APPI (luciferase activity over diluent control)
Procedure: The beta amyloid inhibitory activity of many of the compounds of the present invention has been determined using the Repressor Release Assay (RRA). See, Table 5 below. A compound is considered active in RRA if it leads to at least a 1.5 fold increase in luciferase activity at 20 μg/mL and is non-toxic.
The compounds generated as described in the Examples above are tested in the RRA in accordance with published techniques [Shuey, D. J., Sheiffele, P., Jones, D., Cockett, M. I., and Quinet, E. M. (1999), “Repressor release: a useful tool for monitoring amyloid precursor protein (APP) proteolysis in mammalian cells”, Society for Neuroscience Abstracts, Vol. 25, 29th Annual Meeting of Society for Neuroscience, Miami Beach, Fla., Oct. 23-28, 1999]. Briefly, this assay is performed as follows.
CHO-K1 cells are cultured in whole DMEM media (DMEM—High Glucose with 10% fetal bovine serum, 1% Non-essential Amino Acids, and 1% Penicillin-Streptomycin) at 37° C. with 5% CO2. Two million cells are plated into 10-cm dishes 24 hrs prior to transfection.
Transient transfections are completed as recommended by Gibco BRL using their Lipofectamine Plus® system. First, 6 μg of pRSVO-luc and 6 μg of APP-lacI construct DNA are added to 460 μL Opti-Mem transfection media and incubated with the 30 μL Plus® reagent for 15 minutes. Then, a lipid mixture of 40 μL Lipofectamine Plus® reagent and 460 μL Opti-Mem transfection media is incubated with the DNA-Plus reagent mixture for 15 minutes. During the DNA-lipid incubation, the CHO-K1 cells are washed once and covered in 5.0 mL DMEM media without Penicillin-Streptomycin. The DNA-lipid preparation is then layered onto these cells and incubated at 37° C. overnight.
One and one half million transfected cells per well (100 μL total volume) are plated into sterile, opaque Packard 96-well Cultur-Plates™ in clear DMEM whole media (DMEM—without phenol red) and incubated at 37° C. with 5% CO2 for 3-5 hours.
Compounds are diluted using two different protocols; one protocol is used for compounds supplied neat (weighed powder in vial) and the other protocol is used for compounds supplied in solution (20 mM in DMSO in 96-well plates). For both protocols, 25 mM Hepes and 25 mM Hepes/1% DMSO are prepared fresh to be used as diluent. The Hepes/DMSO is used as the diluent control on all experimental plates.
The following table depicts the steps for compound dilution (please note that the last step is the addition of compound to cells/media in tissue culture plate):
Because some compounds arrive in 96-well format at 20 mM, the following represents the protocol for their dilution (note that an average molecular weight of these compounds was used to calculate these dilutions and as above, the last step is the addition of compound to cells/media in tissue culture plate):
Once compounds are diluted, they are applied in duplicate on cells in tissue culture plates (prepared above). Cells are incubated with compound at 37° C. with 5% CO2 for an additional 36-48 hours.
Luciferase assays (the LucLite® reagent, Packard) are performed and are read on a Packard TopCount® instrument. Media is removed from each 96-well plate and replaced with 100 μL PBS per well (with Mg^2+ and Ca^2+). An equal volume (100 μL) of the LucLite® lysis/substrate buffer is added to each well and the plates are sealed and mixed in the dark on a rotary shaker for about 15 to about 30 minutes at room temperature. Luciferase readings are then taken on the TopCount® instrument. Measurements are expressed as relative light units (RLU) and are calculated and analyzed in the MS Excel® program as follows.
A compound is considered active in RRA if it leads to at least a 1.5 fold increase in luciferase activity at 20 μg/mL and is non-toxic, as determined by loss of signal (≦0.75 fold increase). Fold increase is the amount of luciferase activity (measured in relative light units) over diluent control. SEM represents the standard error of the mean for fold increase (not shown).

[2] = mouse, microsomes
[3] = Phase 1 and 2 rat liver microsome metabolism; assay type: in vitro ADME; details: liver microsomes, read-out: half-life (metabolic stability)
[4] = Phase 1 and 2 mouse liver microsome metabolism; assay type: in vitro ADME; details: liver microsomes, read-out: half-life (metabolic stability)
[5] = Phase 1 and 2 human liver microsome metabolism; assay type: in vitro ADME; details: liver microsomes, read-out: half-life (metabolic stability)
[6] = Phase 1 and 2 dog liver microsome metabolism; assay type: in vitro ADME; details: liver microsomes, read-out: half-life (metabolic stability)
in vitro = details: rat, microsomes
beta amyloid 40 = assay: Aβ40/42 ELISA Assay, Aβ40; assay type: cell-based; details: CHO cells carrying the APP-REP-NL plasmid, 22 hours
Procedure: (§1) Compounds are diluted from DMSO stocks to 2 μM and below in a cell culture medium. Compounds are then applied to CHO cells carrying the APP-REP-NL plasmid [Sudhir et. al, J. Biolog. Chem. 267:25602-25608 (1992)] for a period of 22 hours. After the conditioning period, medium is collected, diluted in assay buffer containing protein, and samples, controls, and synthetic peptide standards are incubated on a prepared ELISA plate. Using a sandwich ELISA with antibodies specifically directed against the carboxyl terminus of beta amyloid 40 or 42 [analogous to the method reported by Haugabook et al., J. Neurosci. Methods 108:171-179 (2001) but using goat anti-mouse IgG1 (source: Southern Biotech) as the anchor, 6E10 as the capture antibody (Source: SENETEK), rabbit antiAβ40 and antiAβ42 (source: QCB) and APL-donkey anti-rabbit IgG (H+L, source: Southern Biotech) as the detection antibody], the effect of the compound treatment on the cellular production of extracellular beta amyloid is quantified. Cells treated with compound are subsequently incubated in cell culture medium containing […]. After a short incubation period, MTS/medium containing plates are read in a spectrophotometer to determine the extent to which compound toxicity affected the cell's metabolism and ability to synthesize beta amyloid. […]

beta amyloid 42 = assay: Aβ40/42 ELISA Assay, Aβ42; assay type: cell-based; details: CHO cells carrying the APP-REP-NL plasmid, 22 hours
Procedure: as §1

O=S(=O)(NC(CO)C(C(F)(F)F)C(F)(F)F)c1ccc(Cl)s1 (stereo not shown) [Example 4, 5′-Chloro-N-[3,3,3-trifluoro-2-(trifluoromethyl)-1-(hydroxymethyl)propyl]thiophene-2′-sulfonamide]
RRA data: fold increase of APPI (luciferase activity over diluent control) [1]: 3.7 fold increase

C[C@H](O)[C@@H](NS(=O)(=O)c1ccc(Cl)s1)[C@H](C)CC(F)(F)F [Example 8, 5-Chloro-N-{(1S,2R)-4,4,4-trifluoro-1-[(1S)-1-hydroxyethyl]-2-methylbutyl}thiophene-2-sulfonamide]
fold induction at 20 µg/mL [1]: 2.8

O=S(=O)(N[C@H](CO)C(C(F)(F)F)C(F)(F)F)c1ccc(Cl)s1 [Example 5, 5′-Chloro-N-[3,3,3-trifluoro-2-(trifluoromethyl)-1-S-(hydroxymethyl)propyl]thiophene-2′-sulfonamide]
RRA data: fold increase of APPI (luciferase activity over diluent control) [1]: 3.8 fold increase
half-life (metabolic stability) [2]: 46 min

C[C@H](CC(F)(F)F)[C@@H](CO)NS(=O)(=O)c1ccc(Cl)s1 [Example 1, 5-Chloro-N-[(1S,2R)-4,4,4-trifluoro-1-(hydroxymethyl)-2-methylbutyl]thiophene-2-sulfonamide]
fold induction at 20 µg/mL [1]: 3.2
half-life [3]: 14 min
half-life [4]: 10 min
half-life [5]: 22 min
half-life [6]: 31 min
melting point: 132 to 133 °C and 136 to 137 °C
half-life (in vitro): ~193 min

CC[C@@H](CC(F)(F)F)[C@H](CO)NS(=O)(=O)c1ccc(Cl)s1 [Example 6, 5-Chloro-N-[(1R,2S)-2-ethyl-4,4,4-trifluoro-1-(hydroxymethyl)butyl]thiophene-2-sulfonamide]
fold induction at 20 µg/mL [1]: 4.2

O=S(=O)(NC(CO)C1CC2C(C1)C2(F)F)c1ccc(Cl)s1 (stereo not shown) [Example 15, 5-Chloro-N-[1-(6,6-difluorobicyclo[3.1.0]hex-3-yl)-2-hydroxyethyl]thiophene-2-sulfonamide]
fold induction at 20 µg/mL [1]: 4.7

C[C@@H](O)[C@@H](NS(=O)(=O)c1ccc(Cl)s1)C(C(F)(F)F)C(F)(F)F [Example 41, 5-Chloro-N-[(1S)-3,3,3-trifluoro-1-[(1R)-1-hydroxyethyl]-2-(trifluoromethyl)propyl]thiophene-2-sulfonamide]
fold induction at 20 µg/mL [1]: 6.2

CC[C@@H](CC(F)(F)F)[C@@H](CO)NS(=O)(=O)c1sc2ccc(Cl)cc2c1C [Example 11, (2S,3S)-2-(5-Chloro-3-methylbenzo[b]thiophene-2-sulfonyl)-amido-5,5,5-trifluoro-3-ethyl-pentan-1-ol]
RRA data: fold increase of APPI (luciferase activity over diluent control) [1]: 4.2 fold increase

O=S(=O)(NC(CO)CC(F)(F)F)c1ccc(Cl)s1 (stereo not shown) [Example 40, 5-chloro-(3,3,3-trifluoro-1-hydroxymethyl-propyl)-thiophene-2-sulfonamide]
fold induction at 20 µg/mL [1]: 3.8

Cc1nn(C)c(Cl)c1S(=O)(=O)N[C@H](CO)[C@H](CC(F)(F)F)c1ccccc1 [Example 12, (2S,3R)-2-(5-Chloro-1,3-dimethyl-1H-pyrazole-4-sulfonyl)-amido-5,5,5-trifluoro-3-phenyl-pentan-1-ol]
RRA data: fold increase of APPI (luciferase activity over diluent control) [1]: 1.6 fold increase

C[C@@H](CC(F)(F)F)[C@@H](CO)NS(=O)(=O)c1ccc(Cl)s1 [Example 10, 5-Chloro-N-[(1S,2S)-4,4,4-trifluoro-1-(hydroxymethyl)-2-methylbutyl]thiophene-2-sulfonamide]
fold induction at 20 µg/mL [1]: 5.2
melting point: 99 to 100 °C

C[C@H](CC(F)(F)F)[C@@H](C=O)NS(=O)(=O)c1ccc(Cl)s1 [Example 16, 5-Chloro-N-[(1S,2R)-4,4,4-trifluoro-1-formyl-2-methylbutyl]thiophene-2-sulfonamide]
fold induction at 20 µg/mL [1]: 3.9

C[C@H](NC(=O)Cc1cc(F)cc(F)c1)C(=O)N[C@H](C(=O)OC(C)(C)C)c1ccccc1 [DAPT]
RRA data: fold increase of APPI (luciferase activity over diluent control) [1]: 18.5-28.1 fold increase
EC50 (beta amyloid 40): 0.171 µM
EC50 (beta amyloid 42): 0.128 µM

CC(=O)[C@@H](NS(=O)(=O)c1ccc(Cl)s1)[C@H](C)CC(F)(F)F [Example 17, N-[(1S,2R)-1-Acetyl-4,4,4-trifluoro-2-methylbutyl]-5-chlorothiophene-2-sulfonamide]
fold induction at 20 µg/mL [1]: 3.6

C[C@H](CC(F)(F)F)[C@H](NS(=O)(=O)c1ccc(Cl)s1)C(C)(C)O [Example 18, 5-Chloro-N-[(1S,2R)-4,4,4-trifluoro-1-(1-hydroxy-1-methylethyl)-2-methylbutyl]thiophene-2-sulfonamide]
fold induction at 20 µg/mL [1]: 2.9

CC[C@H](CC(F)(F)F)[C@H](NS(=O)(=O)c1ccc(Cl)s1)C(C)O (stereo partly drawn) [Example 3, 5′-Chloro-N-[(1S,2R)-2-ethyl, 4,4,4-trifluoro-1-(1-hydroxyethyl)butyl]thiophene-2′-sulfonamide]
RRA data: fold increase of APPI (luciferase activity over diluent control) [1]: 4.3 fold increase

O=S(=O)(NC(CO)CCC(F)(F)F)c1ccc(Cl)s1 (stereo not shown) [Example 7, 5-Chloro-N-[4,4,4-trifluoro-1-(hydroxymethyl)butyl]thiophene-2-sulfonamide]
fold induction at 20 µg/mL [1]: 3.9

CC[C@H](CC(F)(F)F)[C@@H](CO)NS(=O)(=O)c1ccc(Cl)s1 [Example 2, 5-Chloro-N-[(1S,2R)-2-ethyl-4,4,4-trifluoro-1-(hydroxymethyl)butyl]thiophene-2-sulfonamide]
fold induction at 20 µg/mL [1]: 5.4
melting point: 128 to 129 °C

C[C@H](CC(F)(F)F)[C@H](NS(=O)(=O)c1ccc(Cl)s1)[C@@H](C)O [Example 9, 5-Chloro-N-{(1S,2R)-4,4,4-trifluoro-1-[(1R)-1-hydroxyethyl]-2-methylbutyl}thiophene-2-sulfonamide]
fold induction at 20 µg/mL [1]: 2.8

O=S(=O)(NC(CO)C1CCC(F)(F)CC1)c1ccc(Cl)s1 (stereo not shown) [Example 14, 5-Chloro-N-[1-(4,4-difluorocyclohexyl)-2-hydroxyethyl]thiophene-2-sulfonamide]
fold induction at 20 µg/mL [1]: 6.2
